From PubChem BioAssay AID328 (DTP/NCI, 2004)
“And” between values parts separate entries of the source, which are not always exact repeats. Equal values may be shown once. Toxic doses and inconclusive results are not listed. The calls were made as follows: active = survival T/C of 150% or more; inactive = T/C below 125% in these data.

Tested on: BDF1 mice, P388 leukemia ip, median survival T/C
Assay: NCI In Vivo Anticancer Drug Screen. Data for tumor model P388 Leukemia (intraperitoneal) in B6D2F1 (BDF1) mice
Conditions: endpoint: median survival time, higher = longer survival
Outline: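 Each value expresses how treatment altered survival: treated-mouse outcome over vehicle-mouse outcome, both groups bearing the transplanted tumour.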

[1] = dose: 100.0 mg/kg/injection, schedule: Q04DX003 (ip), vehicle: Klucel (hydroxypropylcellulose) (HPC)
[2] = dose: 200.0 mg/kg/injection, schedule: Q04DX003 (ip), vehicle: Klucel (hydroxypropylcellulose) (HPC)
[3] = dose: 50.0 mg/kg/injection, schedule: Q01DX009 (ip), vehicle: saline with Tween-80
[4] = dose: 100.0 mg/kg/injection, schedule: Q01DX009 (ip), vehicle: saline with Tween-80
[5] = dose: 200.0 mg/kg/injection, schedule: Q01DX009 (ip), vehicle: saline with Tween-80
[6] = dose: 6.25 mg/kg/injection, schedule: Q01DX009 (ip), vehicle: saline with Tween-80
[7] = dose: 12.5 mg/kg/injection, schedule: Q01DX009 (ip), vehicle: saline with Tween-80
[8] = dose: 100.0 mg/kg/injection, schedule: Q01DX009 (ip), vehicle: Klucel (hydroxypropylcellulose) (HPC)
[9] = dose: 50.0 mg/kg/injection, schedule: Q04DX003 (ip), vehicle: saline
[10] = dose: 100.0 mg/kg/injection, schedule: Q04DX003 (ip), vehicle: saline
[11] = dose: 100.0 mg/kg/injection, schedule: Q04DX003 (ip), vehicle: saline with Tween-80
[12] = dose: 200.0 mg/kg/injection, schedule: Q04DX003 (ip), vehicle: saline with Tween-80
[13] = dose: 400.0 mg/kg/injection, schedule: Q04DX003 (ip), vehicle: saline with Tween-80

Measured: T/C

CCCCCCCCCCCCCCCC(N)=O
inactive: dose: 12.5 mg/kg/injection, schedule: Q01DX009 (ip), vehicle: gum acacia 100 % of control | dose: 50.0 mg/kg/injection, schedule: Q01DX009 (ip), vehicle: gum acacia 91 % of control | [1] 86 % of control | [2] 90 % of control | dose: 400.0 mg/kg/injection, schedule: Q04DX003 (ip), vehicle: Klucel (hydroxypropylcellulose) (HPC) 104 % of control

O=C(NC1CCCCC1)N(c1ccccc1)c1nnc(-c2cccc([N+](=O)[O-])c2)s1
inactive: [3] 104 % of control | [4] 95 % of control | [5] 115 % of control

S=C1SCN(CCc2ccccc2)CN1CCc1ccccc1
inactive: [6] 111 % of control | [7] 102 % of control | dose: 25.0 mg/kg/injection, schedule: Q01DX009 (ip), vehicle: saline with Tween-80 104 % of control | [3] 100 % of control

ON=C1CSSC1
inactive: dose: 0.78 mg/kg/injection, schedule: Q01DX009 (ip), vehicle: saline with Tween-80 100 % of control | dose: 0.78 mg/kg/injection, schedule: Q04DX003 (ip), vehicle: saline with Tween-80 106 % of control | dose: 1.56 mg/kg/injection, schedule: Q01DX009 (ip), vehicle: saline with Tween-80 102 % of control | dose: 1.56 mg/kg/injection, schedule: Q04DX003 (ip), vehicle: saline with Tween-80 100 % of control | dose: 3.12 mg/kg/injection, schedule: Q01DX009 (ip), vehicle: saline with Tween-80 109 % of control | dose: 3.12 mg/kg/injection, schedule: Q04DX003 (ip), vehicle: saline with Tween-80 99 % of control and 104 % of control | [6] 90 % of control | dose: 6.25 mg/kg/injection, schedule: Q04DX003 (ip), vehicle: saline with Tween-80 100 % of control and 104 % of control | [7] 102 % of control | dose: 12.5 mg/kg/injection, schedule: Q04DX003 (ip), vehicle: saline with Tween-80 99 % of control and 106 % of control

N#CC1(c2ccc(Cl)cc2)CC1
inactive: [8] 95 % of control | [1] 92 % of control | dose: 200.0 mg/kg/injection, schedule: Q01DX009 (ip), vehicle: Klucel (hydroxypropylcellulose) (HPC) 100 % of control | [2] 100 % of control

CN1CC2OC2C2C1N2C#N (stereo not given)
inactive: dose: 25.0 mg/kg/injection, schedule: Q01DX005 (ip), vehicle: saline 97 % of control | dose: 50.0 mg/kg/injection, schedule: Q01DX005 (ip), vehicle: saline 106 % of control | dose: 100.0 mg/kg/injection, schedule: Q01DX005 (ip), vehicle: saline 111 % of control | dose: 200.0 mg/kg/injection, schedule: Q01DX005 (ip), vehicle: saline 115 % of control

CCC1COC(=O)N1 (stereo not given)
inactive: dose: 25.0 mg/kg/injection, schedule: Q04DX003 (ip), vehicle: saline 109 % of control | [9] 104 % of control | [10] 95 % of control

O=C(O)CNCc1ccc(F)cc1
inactive: [9] 111 % of control | [10] 120 % of control | dose: 200.0 mg/kg/injection, schedule: Q04DX003 (ip), vehicle: saline 115 % of control

Cc1ccc(-c2nc3ccccc3c(=O)n2/N=C/c2ccc(Cl)cc2Cl)cc1
inactive: [3] 100 % of control | [4] 89 % of control | [5] 90 % of control

CN(C)c1ccc(/C=C\c2ccnc3c([N+](=O)[O-])cccc23)cc1
inactive: [3] 115 % of control | [4] 97 % of control | [5] 92 % of control

O=CNc1ccc(/C=C\c2ccnc3ccccc23)cc1
inactive: dose: 3.13 mg/kg/injection, schedule: Q01DX009 (ip), vehicle: saline with Tween-80 111 % of control | [6] 106 % of control | [7] 103 % of control | [3] 94 % of control | [4] 86 % of control | [5] 91 % of control

Clc1ccc(-c2cc(=[N+]3CC[N+](=c4cc(-c5ccc(Cl)cc5)ss4)CC3)ss2)cc1
inactive: dose: 50.0 mg/kg/injection, schedule: Q04DX003 (ip), vehicle: water 109 % of control | dose: 100.0 mg/kg/injection, schedule: Q01DX009 (ip), vehicle: water 121 % of control | dose: 100.0 mg/kg/injection, schedule: Q04DX003 (ip), vehicle: water 116 % of control | dose: 200.0 mg/kg/injection, schedule: Q01DX009 (ip), vehicle: water 111 % of control | dose: 200.0 mg/kg/injection, schedule: Q04DX003 (ip), vehicle: water 109 % of control

CC1(C)N=C(c2ccc3ccccc3c2)CC1C#N (stereo not given)
inactive: dose: 100.0 mg/kg/injection, schedule: Q01DX001 (ip), vehicle: saline with Tween-80 100 % of control | dose: 200.0 mg/kg/injection, schedule: Q01DX001 (ip), vehicle: saline with Tween-80 100 % of control | dose: 400.0 mg/kg/injection, schedule: Q01DX001 (ip), vehicle: saline with Tween-80 95 % of control

COc1ccc(N=O)c(O)c1
inactive: dose: 25.0 mg/kg/injection, schedule: Q01DX009 (ip), vehicle: Klucel (hydroxypropylcellulose) (HPC) 100 % of control and 109 % of control | dose: 25.0 mg/kg/injection, schedule: Q01DX010 (ip), vehicle: carboxymethylcellulose (CMC) 110 % of control | dose: 25.0 mg/kg/injection, schedule: Q04DX003 (ip), vehicle: Klucel (hydroxypropylcellulose) (HPC) 115 % of control | dose: 50.0 mg/kg/injection, schedule: Q01DX009 (ip), vehicle: Klucel (hydroxypropylcellulose) (HPC) 100 % of control and 109 % of control | dose: 50.0 mg/kg/injection, schedule: Q01DX010 (ip), vehicle: carboxymethylcellulose (CMC) 115 % of control | dose: 50.0 mg/kg/injection, schedule: Q04DX003 (ip), vehicle: Klucel (hydroxypropylcellulose) (HPC) 110 % of control | [8] 113 % of control and 118 % of control | [1] 110 % of control

[Cl][Rh][Cl].[NH-]c1ccc(S(N)(=O)=O)cc1.[NH-]c1ccc(S(N)(=O)=O)cc1.[NH-]c1ccc(S(N)(=O)=O)cc1.[NH-]c1ccc(S(N)(=O)=O)cc1
inactive: [11] 108 % of control | [12] 103 % of control | [13] 107 % of control

O=C(O)/C(=C/c1ccc(Cl)cc1)c1ccccc1
inactive: [4] 91 % of control | [5] 94 % of control

COc1cc2c(cc1OC)C1CCN3C(=O)CCC3N1CC2 (stereo not given)
inactive: [11] 88 % of control | [5] 92 % of control | [12] 92 % of control | dose: 400.0 mg/kg/injection, schedule: Q01DX009 (ip), vehicle: saline with Tween-80 104 % of control | [13] 96 % of control

Cc1n[nH]c(=S)[nH]c1=S
inactive: dose: 25.0 mg/kg/injection, schedule: Q04DX003 (ip), vehicle: saline with Tween-80 109 % of control | dose: 50.0 mg/kg/injection, schedule: Q04DX003 (ip), vehicle: saline with Tween-80 100 % of control | [11] 104 % of control

Fc1ccc(C2CN3C(=N2)C=Cc2ccccc23)cc1 (stereo not given)
inactive: [3] 101 % of control | [4] 99 % of control | [5] 117 % of control

COC(=O)C(=NO)C(=O)OC
inactive: dose: 100.0 mg/kg/injection, schedule: Q01DX009 (ip), vehicle: saline 104 % of control | dose: 200.0 mg/kg/injection, schedule: Q01DX009 (ip), vehicle: saline 96 % of control | dose: 400.0 mg/kg/injection, schedule: Q01DX009 (ip), vehicle: saline 96 % of control

COc1cc2c(c(OC)c1OC)-c1ccc(N)c(=O)cc1[C@@H](NC(C)=O)CC2
inactive: dose: 0.5 mg/kg/injection, schedule: Q01DX010 (ip), vehicle: saline 113 % of control | dose: 2.0 mg/kg/injection, schedule: Q01DX010 (ip), vehicle: saline 118 % of control
